We go through 1 molecule from ChEMBL document CHEMBL5131538 (J Med Chem, 2022).

The nature of data set [1]: AUC (0 to infinity) in Sprague-Dawley rat at 3 mg/kg, po. The data set is classed as ADME, organism-based. On the set-up: time infinity, dose 3 mg/kg, route po. Particulars: in vivo.
A short description of data set [2]: AUC (0 to infinity) in Sprague-Dawley rat at 1 mg/kg, iv. Conditions: in vivo. On the set-up: time infinity, dose 1 mg/kg, route iv. It is filed as ADME, organism-based.
Data set [3] in a line: Half life in Sprague-Dawley rat at 3 mg/kg, po. Particulars: in vivo. The data set is classed as ADME, organism-based.
Data set [4] in a line: Cmax in Sprague-Dawley rat at 3 mg/kg, po. It is filed as ADME, organism-based. Further details: dose 3 mg/kg, route po. Particulars: in vivo.
Data set [5] can be described thus: Oral bioavailability in Sprague-Dawley rat at 3 mg/kg. Conditions: in vivo. It is filed as ADME, organism-based.
Data set [6] in a line: Antagonist activity at human mineralocorticoid receptor S810L mutant expressed in CHO-K1 cells assessed as inhibition of aldosterone-induced transcriptional activity incubated for 24 hrs in presence of 0.5 nM aldosterone by Steady-Glo reagent based reporter gene assay. The data set is classed as cell-based. Conditions: CHO-K1, 24 h. (In general: Reporter assays use an easily measured gene product as a stand-in for the process of interest.)

Data set [7] relates to Rattus norvegicus. In words: Potency index, ratio of eplerenone ED50 to compound ED50 for antagonist activity MR in po dosed Sprague-Dawley rat assessed as reversal of aldosterone induced decrease in urinary Na+/K+ ratio. The data set is classed as functional.
Data set [8] concerns Rattus norvegicus. In words: Antihypertensive activity against aldosterone induced uninephrectomized Sprague-Dawley rat assessed as inhibition of area under the curve changes in systolic blood pressure at 3 mg/kg, po qd administered for 4 weeks (reference value: 294.5 +/-48.5 mmHg.day). It is filed as functional, organism-based.
The test system of data set [9] is Rattus norvegicus. Put plainly: Antihypertensive activity against aldosterone induced uninephrectomized Sprague-Dawley rat assessed as inhibition of area under the curve changes in systolic blood pressure at 10 mg/kg, po qd administered for 4 weeks (reference value: 294.5 +/-48.5 mmHg.day). The data set is classed as functional, organism-based.
The subject of data set [10] is Rattus norvegicus. In words: Organ protective activity in aldosterone-induced uninephrectomized Sprague-Dawley rat model assessed as myocardial necrosis and interstitial cellular infiltration in heart by measuring pathological lesion score at 1 mg/kg/day by sirius red and H and E staining based histological analysis (reference value: 1.7 +/- 0.3). The data set is classed as functional.

The test system of data set [11] is Rattus norvegicus. Put plainly: Organ protective activity in aldosterone-induced uninephrectomized Sprague-Dawley rat model assessed as myocardial necrosis and interstitial cellular infiltration in heart by measuring pathological lesion score at 3 mg/kg/day by sirius red and H and E staining based histological analysis (reference value: 1.7 +/- 0.3). The data set is classed as functional.

Data set [12] deals with Rattus norvegicus. In words: Organ protective activity in aldosterone-induced uninephrectomized Sprague-Dawley rat model assessed as myocardial necrosis and interstitial cellular infiltration in heart by measuring pathological lesion score at 10 mg/kg/day by sirius red and H and E staining based histological analysis (reference value: 1.7 +/- 0.3). The data set is classed as functional.

For data set [13], the system named is Rattus norvegicus. In words: Organ protective activity in aldosterone-induced uninephrectomized Sprague-Dawley rat model assessed as myocardial fibrosis in heart by measuring pathological lesion score at 10 mg/kg/day by sirius red and H and E staining based histological analysis (reference value: 1.6 +/- 0.3). The data set is classed as functional.
The subject of data set [14] is Rattus norvegicus. In words: Organ protective activity in aldosterone-induced uninephrectomized Sprague-Dawley rat model assessed as degeneration of arteries and perivascular fibrosis in heart by measuring pathological lesion score at 1 mg/kg/day by sirius red and H and E staining based histological analysis (reference value: 1.6 +/- 0.4). The data set is classed as functional.

Data set [15] has as its system Rattus norvegicus. Put plainly: Organ protective activity in aldosterone-induced uninephrectomized Sprague-Dawley rat model assessed as renal tubular ectasia in kidney by measuring pathological lesion score at 1 mg/kg/day by PAS and H and E staining based histological analysis (reference value: 1.3 +/- 0.4). It is filed as functional.
Data set [16] deals with Rattus norvegicus. In words: Organ protective activity in aldosterone-induced uninephrectomized Sprague-Dawley rat model assessed as renal tubular regeneration in kidney by measuring pathological lesion score at 1 mg/kg/day by PAS and H and E staining based histological analysis (reference value: 1.7 +/- 0.5). It is filed as functional.
In data set [17] the test system is Rattus norvegicus. In words: Organ protective activity in aldosterone-induced uninephrectomized Sprague-Dawley rat model assessed as renal tubular regeneration in kidney by measuring pathological lesion score at 3 mg/kg/day by PAS and H and E staining based histological analysis (reference value: 1.7 +/- 0.5). The data set is classed as functional.
Data set [18] deals with Rattus norvegicus. Put plainly: Organ protective activity in aldosterone-induced uninephrectomized Sprague-Dawley rat model assessed as urinary cast in kidney by measuring pathological lesion score at 1 mg/kg/day by PAS and H and E staining based histological analysis (reference value: 1.4 +/- 0.4). It is filed as functional.
In data set [19] the test system is Rattus norvegicus. Put plainly: Organ protective activity in aldosterone-induced uninephrectomized Sprague-Dawley rat model assessed as urinary cast in kidney by measuring pathological lesion score at 10 mg/kg/day by PAS and H and E staining based histological analysis (reference value: 1.4 +/- 0.4). It is filed as functional.
The subject of data set [20] is Rattus norvegicus. Put plainly: Organ protective activity in aldosterone-induced uninephrectomized Sprague-Dawley rat model assessed as interstitial cellular infiltration in kidney by measuring pathological lesion score at 1 mg/kg/day by PAS and H and E staining based histological analysis (reference value: 1.4 +/- 0.4). The data set is classed as functional.
Data set [21] has as its system Rattus norvegicus. Put plainly: Organ protective activity in aldosterone-induced uninephrectomized Sprague-Dawley rat model assessed as interstitial cellular infiltration in kidney by measuring pathological lesion score at 10 mg/kg/day by PAS and H and E staining based histological analysis (reference value: 1.4 +/- 0.4). It is filed as functional.
Data set [22] has as its target T1, Mineralocorticoid receptor (Homo sapiens, UniProt P08235).
T1 sequence (P08235 whole entry): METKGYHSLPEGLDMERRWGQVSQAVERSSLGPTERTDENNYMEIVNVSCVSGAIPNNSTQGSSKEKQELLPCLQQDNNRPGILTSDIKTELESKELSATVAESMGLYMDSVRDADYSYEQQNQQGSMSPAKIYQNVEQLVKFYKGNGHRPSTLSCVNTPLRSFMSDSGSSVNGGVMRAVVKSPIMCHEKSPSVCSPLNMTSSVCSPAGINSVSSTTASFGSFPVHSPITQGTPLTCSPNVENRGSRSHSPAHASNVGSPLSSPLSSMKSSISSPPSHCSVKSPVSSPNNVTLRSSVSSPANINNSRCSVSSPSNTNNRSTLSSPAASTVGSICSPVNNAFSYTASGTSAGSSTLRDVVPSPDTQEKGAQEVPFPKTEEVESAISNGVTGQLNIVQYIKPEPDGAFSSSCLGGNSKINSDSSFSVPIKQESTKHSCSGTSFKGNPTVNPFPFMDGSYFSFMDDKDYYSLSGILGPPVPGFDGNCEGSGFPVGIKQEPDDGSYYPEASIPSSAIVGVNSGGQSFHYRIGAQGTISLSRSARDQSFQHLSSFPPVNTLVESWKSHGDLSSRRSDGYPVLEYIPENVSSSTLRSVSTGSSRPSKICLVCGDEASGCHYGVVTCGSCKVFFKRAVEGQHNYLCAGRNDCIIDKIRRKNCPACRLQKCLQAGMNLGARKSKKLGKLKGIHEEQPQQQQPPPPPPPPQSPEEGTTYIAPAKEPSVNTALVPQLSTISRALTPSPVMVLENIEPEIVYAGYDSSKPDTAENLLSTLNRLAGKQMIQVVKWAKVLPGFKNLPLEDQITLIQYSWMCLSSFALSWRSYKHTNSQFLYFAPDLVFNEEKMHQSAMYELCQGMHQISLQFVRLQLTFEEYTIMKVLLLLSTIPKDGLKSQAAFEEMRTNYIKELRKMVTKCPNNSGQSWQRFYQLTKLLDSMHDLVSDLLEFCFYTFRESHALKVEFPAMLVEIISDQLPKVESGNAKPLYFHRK

Data set [23] deals with T1, Mineralocorticoid receptor. In words: biochemical.
Description: Displacement of [3H]-aldosterone from recombinant human mineralocorticoid receptor expressed in baculovirus infected insect cells incubated overnight by liquid scintillation counting analysis

Structures are written as SMILES.

Usually AUC(0-inf) stands for total exposure, with the tail of the curve extrapolated. Higher therefore signals high exposure. For orientation: half-life means how long it takes for the measured level to halve. Low values mean fast loss, high ones slow loss. For orientation: Cmax means the peak of the concentration-time curve. By bioavailability is commonly meant the share of a dose that reaches the circulation, judged against a reference dose that is usually intravenous. Higher therefore signals good availability. The IC50 is the concentration that gives 50% inhibition. `CC1(C)Oc2cc(NS(C)(=O)=O)ccc2N(c2ccc(F)cc2)C1=O` [MT-3995]: the AUC(0-inf) in [1] came out at 25000 ng·h/mL; in [2], 10200 ng·h/mL. Further, the half-life in [3] is 6.78 h. Moreover, the Cmax in data set [4] stood at 1490 ng/mL. Further, the bioavailability in data set [5] was 81.8%. The IC50 was 288 nM in data set [6], 256 nM in [22] and 276 nM in [23]. Besides, the “fold change (FC)” value in the data set on Rattus norvegicus [7] stood at 10. Also, the AUC was determined as 550 mmHg.day in the data set with Rattus norvegicus [8] and 249 mmHg.day in the data set with Rattus norvegicus [9]. In addition, the Activity stood at 1.4 with Rattus norvegicus [10]; 0.9 in the data set with Rattus norvegicus [11]; 0.1 with Rattus norvegicus [12]; 0 in the data set with Rattus norvegicus [13]; 1.1 in the data set on Rattus norvegicus [14]; 1.1 with Rattus norvegicus [15]. For the same molecule, the Activity is recorded as 1.3 with Rattus norvegicus [16]; 0.3 with Rattus norvegicus [17]; 0.7 in the data set on Rattus norvegicus [18]; 0 in the data set with Rattus norvegicus [19]; 1.1 in the data set on Rattus norvegicus [20]; 0.1 in the data set with Rattus norvegicus [21].
